Experimental data from patent US10457691B2, “Macrocyclic kinase inhibitors and uses thereof” (Dana-Farber Cancer Institute, Inc., priority 2014, dated 2019).

How the values were obtained:
Assay type in all cases: biochemical
Conditions in all cases: read-out: Activity of the protein kinase when treated with compound I-1 (% control)
Aurora A = Aurora A (Homo sapiens, UniProt O14965); assay: Protein kinase assay ([γ-32P] ATP), Aurora A
Description: (§1) In another set of experiments, the activities of the compounds described herein against various protein kinases were determined according to the methods reported in Hastie et al., Nature Protocols, 2006, 1, 968-971.
(§2) Enzyme dilution buffer. This buffer consisted of 50 mM Tris-HCl, pH 7.5, 0.1 mM EGTA, 1 mg ml^−1 bovine serum albumin and 0.1% (vol/vol) 2-mercaptoethanol.
(§3) 10× concentrated assay buffer. An assay buffer of 500 mM Tris-HCl, pH 7.5, 1 mM EGTA, and 100 mM magnesium acetate was used for assay of a wide variety of protein kinases. In some experiments, other cofactors were included (e.g., calcium ions and calmodulin were included for assay of calcium-calmodulindependent protein kinases).
(§4) 1 mM [γ-^32P] ATP. The specific activity of the [γ-^32P] ATP solution was 1×10^5 to 1×10^6 c.p.m. per nmol depending on what was needed to produce an optimal signal/noise ratio. […] To measure the concentration of ATP, a sample of such a stock solution was diluted to 20 μM, and the absorbance of the diluted sample was measured at 259 nm. The absorbance of a 20-μM stock solution of ATP at 259 nm was about 0.31. […] ATP to produce a radioactivity of 1×10^5 to 1×10^6 c.p.m. per nmol. […]
(§5) 13) Measure radioactivity in the samples by Cerenkov counting (e.g., without liquid scintillation fluid) in a liquid scintillation counter using a “^32P program”. […]

CK1γ2 = CK1γ2 (Homo sapiens, UniProt P78368); assay: Protein kinase assay ([γ-32P] ATP), CK1γ2
Description: as §1, §2, §3, §4, §5

EPH-A4 = EPH-A4 (Homo sapiens, UniProt P54764); assay: Protein kinase assay ([γ-32P] ATP), EPH-A4
Description: as §1, §2, §3, §4, §5

MEKK1 = MEKK1 (Homo sapiens, UniProt Q13233); assay: Protein kinase assay ([γ-32P] ATP), MEKK1
Description: as §1, §2, §3, §4, §5

MKK2 = MKK2 (Homo sapiens, UniProt P36507); assay: Protein kinase assay ([γ-32P] ATP), MKK2
Description: as §1, §2, §3, §4, §5

MKK6 = MKK6 (Homo sapiens, UniProt P52564); assay: Protein kinase assay ([γ-32P] ATP), MKK6
Description: as §1, §2, §3, §4, §5

MPSK1 = MPSK1 (Homo sapiens, UniProt O75716); assay: Protein kinase assay ([γ-32P] ATP), MPSK1
Description: as §1, §2, §3, §4, §5

MST3 = MST3 (Homo sapiens, UniProt Q9Y6E0); assay: Protein kinase assay ([γ-32P] ATP), MST3
Description: as §1, §2, §3, §4, §5

MST4 = MST4 (Homo sapiens, UniProt Q9P289); assay: Protein kinase assay ([γ-32P] ATP), MST4
Description: as §1, §2, §3, §4, §5

PIM2 = PIM2 (Homo sapiens, UniProt Q9P1W9); assay: Protein kinase assay ([γ-32P] ATP), PIM2
Description: as §1, §2, §3, §4, §5

[1] = 0.1 μM of compound I-1, DMSO control = 100%
[2] = 1 μM of compound I-1, DMSO control = 100%

Sequence of MKK2 (P36507 whole entry): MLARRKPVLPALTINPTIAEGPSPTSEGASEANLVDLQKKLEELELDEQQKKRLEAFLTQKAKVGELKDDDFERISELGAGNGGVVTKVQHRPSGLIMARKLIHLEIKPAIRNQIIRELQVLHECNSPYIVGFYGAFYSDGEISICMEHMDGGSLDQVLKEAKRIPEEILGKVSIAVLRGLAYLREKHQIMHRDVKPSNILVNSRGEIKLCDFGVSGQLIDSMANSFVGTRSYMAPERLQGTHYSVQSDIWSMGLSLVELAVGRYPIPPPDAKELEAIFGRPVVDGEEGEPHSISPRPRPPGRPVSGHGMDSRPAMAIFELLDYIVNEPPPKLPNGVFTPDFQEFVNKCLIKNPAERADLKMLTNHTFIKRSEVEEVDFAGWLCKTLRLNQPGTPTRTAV
Sequence of Aurora A (O14965 whole entry): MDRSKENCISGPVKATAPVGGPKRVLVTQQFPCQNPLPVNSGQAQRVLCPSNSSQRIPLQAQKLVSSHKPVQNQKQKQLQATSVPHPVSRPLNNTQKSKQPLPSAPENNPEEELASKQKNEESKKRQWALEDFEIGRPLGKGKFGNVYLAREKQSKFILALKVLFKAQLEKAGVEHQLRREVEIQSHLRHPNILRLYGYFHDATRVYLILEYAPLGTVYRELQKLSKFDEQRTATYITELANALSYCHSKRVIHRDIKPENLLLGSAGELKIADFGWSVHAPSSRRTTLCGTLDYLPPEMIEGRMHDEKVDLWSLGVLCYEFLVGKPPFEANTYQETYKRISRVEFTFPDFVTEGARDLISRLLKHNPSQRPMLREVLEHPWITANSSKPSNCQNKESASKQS
Sequence of MEKK1 (Q13233 whole entry): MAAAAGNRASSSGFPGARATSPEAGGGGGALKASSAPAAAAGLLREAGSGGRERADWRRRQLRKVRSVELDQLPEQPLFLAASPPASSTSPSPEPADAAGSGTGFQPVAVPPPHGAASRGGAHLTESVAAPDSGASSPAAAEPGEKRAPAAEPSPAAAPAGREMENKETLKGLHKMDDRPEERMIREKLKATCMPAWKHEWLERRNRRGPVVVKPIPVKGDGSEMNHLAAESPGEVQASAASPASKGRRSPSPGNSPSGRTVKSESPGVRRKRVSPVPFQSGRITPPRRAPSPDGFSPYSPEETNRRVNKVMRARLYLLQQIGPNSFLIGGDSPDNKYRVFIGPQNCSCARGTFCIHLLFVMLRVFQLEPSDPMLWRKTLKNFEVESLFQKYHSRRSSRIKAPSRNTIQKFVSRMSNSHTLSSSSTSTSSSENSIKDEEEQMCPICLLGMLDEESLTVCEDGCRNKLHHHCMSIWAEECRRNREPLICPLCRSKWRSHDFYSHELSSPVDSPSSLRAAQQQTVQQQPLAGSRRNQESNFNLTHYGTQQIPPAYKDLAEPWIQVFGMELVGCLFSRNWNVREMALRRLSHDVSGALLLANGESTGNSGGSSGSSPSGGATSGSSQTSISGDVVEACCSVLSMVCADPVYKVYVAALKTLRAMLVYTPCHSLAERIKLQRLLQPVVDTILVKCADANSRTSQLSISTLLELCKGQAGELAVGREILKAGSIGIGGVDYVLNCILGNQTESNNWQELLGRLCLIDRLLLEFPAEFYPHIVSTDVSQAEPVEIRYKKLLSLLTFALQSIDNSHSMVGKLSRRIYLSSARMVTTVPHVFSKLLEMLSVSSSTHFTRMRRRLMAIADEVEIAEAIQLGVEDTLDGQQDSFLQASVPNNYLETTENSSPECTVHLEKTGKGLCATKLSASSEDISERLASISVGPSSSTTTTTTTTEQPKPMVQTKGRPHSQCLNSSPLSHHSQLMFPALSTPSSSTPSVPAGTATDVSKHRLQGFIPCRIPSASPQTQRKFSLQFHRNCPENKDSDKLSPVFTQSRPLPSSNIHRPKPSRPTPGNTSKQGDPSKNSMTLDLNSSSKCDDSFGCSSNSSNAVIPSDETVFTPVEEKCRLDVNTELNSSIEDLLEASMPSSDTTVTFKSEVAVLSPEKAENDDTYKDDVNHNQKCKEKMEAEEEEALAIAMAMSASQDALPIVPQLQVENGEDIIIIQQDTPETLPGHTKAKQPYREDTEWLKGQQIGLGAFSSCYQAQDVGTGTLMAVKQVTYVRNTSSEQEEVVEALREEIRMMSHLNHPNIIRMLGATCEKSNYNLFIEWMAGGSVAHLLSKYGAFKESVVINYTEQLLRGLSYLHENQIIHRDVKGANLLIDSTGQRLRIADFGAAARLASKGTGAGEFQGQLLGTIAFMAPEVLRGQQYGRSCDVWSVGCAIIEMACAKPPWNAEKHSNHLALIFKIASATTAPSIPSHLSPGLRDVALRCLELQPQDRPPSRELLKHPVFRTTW
Sequence of EPH-A4 (P54764 20-986): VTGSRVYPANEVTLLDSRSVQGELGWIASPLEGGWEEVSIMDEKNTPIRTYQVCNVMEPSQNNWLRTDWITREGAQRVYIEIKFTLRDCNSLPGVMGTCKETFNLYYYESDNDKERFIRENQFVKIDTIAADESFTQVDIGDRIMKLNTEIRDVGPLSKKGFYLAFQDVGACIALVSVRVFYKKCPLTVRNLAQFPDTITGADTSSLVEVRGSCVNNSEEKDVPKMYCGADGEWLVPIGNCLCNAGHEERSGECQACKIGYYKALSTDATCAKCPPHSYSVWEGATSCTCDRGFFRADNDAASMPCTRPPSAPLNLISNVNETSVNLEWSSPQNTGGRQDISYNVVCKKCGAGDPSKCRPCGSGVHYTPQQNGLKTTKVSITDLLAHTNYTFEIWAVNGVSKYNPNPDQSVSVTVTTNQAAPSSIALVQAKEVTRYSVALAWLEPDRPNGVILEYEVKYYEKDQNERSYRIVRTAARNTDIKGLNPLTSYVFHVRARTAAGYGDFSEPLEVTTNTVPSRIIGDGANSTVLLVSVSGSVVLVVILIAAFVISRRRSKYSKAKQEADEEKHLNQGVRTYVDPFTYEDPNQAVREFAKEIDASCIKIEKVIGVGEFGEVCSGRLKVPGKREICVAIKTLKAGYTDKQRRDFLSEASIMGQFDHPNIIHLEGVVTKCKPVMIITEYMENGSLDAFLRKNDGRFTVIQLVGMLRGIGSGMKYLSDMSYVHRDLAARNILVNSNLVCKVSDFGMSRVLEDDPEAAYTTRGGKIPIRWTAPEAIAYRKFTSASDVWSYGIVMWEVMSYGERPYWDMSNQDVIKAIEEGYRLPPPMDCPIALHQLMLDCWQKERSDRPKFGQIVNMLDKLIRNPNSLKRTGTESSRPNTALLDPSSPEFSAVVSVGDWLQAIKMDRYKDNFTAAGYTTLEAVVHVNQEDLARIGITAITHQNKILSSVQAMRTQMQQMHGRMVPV
Sequence of PIM2 (Q9P1W9 whole entry): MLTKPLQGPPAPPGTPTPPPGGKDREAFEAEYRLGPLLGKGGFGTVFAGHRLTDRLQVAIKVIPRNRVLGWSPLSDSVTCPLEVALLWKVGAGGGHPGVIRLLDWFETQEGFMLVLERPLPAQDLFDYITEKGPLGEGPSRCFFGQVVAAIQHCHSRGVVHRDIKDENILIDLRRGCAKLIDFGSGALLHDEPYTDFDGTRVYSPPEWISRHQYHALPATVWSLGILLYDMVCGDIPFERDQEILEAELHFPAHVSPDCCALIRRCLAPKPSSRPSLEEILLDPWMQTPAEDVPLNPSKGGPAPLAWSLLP
Sequence of MST4 (Q9P289 whole entry): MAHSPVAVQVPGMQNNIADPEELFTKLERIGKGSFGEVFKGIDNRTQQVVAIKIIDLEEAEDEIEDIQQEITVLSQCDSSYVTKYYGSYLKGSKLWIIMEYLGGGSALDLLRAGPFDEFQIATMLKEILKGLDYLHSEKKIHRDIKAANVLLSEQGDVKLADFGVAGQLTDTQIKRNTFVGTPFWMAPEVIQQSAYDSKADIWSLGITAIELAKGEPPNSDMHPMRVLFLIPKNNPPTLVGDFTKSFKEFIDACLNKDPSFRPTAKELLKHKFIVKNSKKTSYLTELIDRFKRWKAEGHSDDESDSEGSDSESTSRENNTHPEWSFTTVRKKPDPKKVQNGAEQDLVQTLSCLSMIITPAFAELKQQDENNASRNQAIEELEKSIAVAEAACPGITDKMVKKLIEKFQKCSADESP
Sequence of CK1γ2 (P78368 whole entry): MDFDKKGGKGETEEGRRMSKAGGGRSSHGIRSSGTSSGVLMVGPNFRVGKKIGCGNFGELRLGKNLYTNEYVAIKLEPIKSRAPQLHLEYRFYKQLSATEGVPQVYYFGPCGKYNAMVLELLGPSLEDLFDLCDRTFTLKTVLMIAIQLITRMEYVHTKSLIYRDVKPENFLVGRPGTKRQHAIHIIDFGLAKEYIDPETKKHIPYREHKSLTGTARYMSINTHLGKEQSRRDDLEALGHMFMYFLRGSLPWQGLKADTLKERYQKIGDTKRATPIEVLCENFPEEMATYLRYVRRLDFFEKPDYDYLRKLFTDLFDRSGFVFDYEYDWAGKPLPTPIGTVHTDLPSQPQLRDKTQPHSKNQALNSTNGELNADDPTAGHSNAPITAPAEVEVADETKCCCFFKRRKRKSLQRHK
Sequence of MKK6 (P52564 whole entry): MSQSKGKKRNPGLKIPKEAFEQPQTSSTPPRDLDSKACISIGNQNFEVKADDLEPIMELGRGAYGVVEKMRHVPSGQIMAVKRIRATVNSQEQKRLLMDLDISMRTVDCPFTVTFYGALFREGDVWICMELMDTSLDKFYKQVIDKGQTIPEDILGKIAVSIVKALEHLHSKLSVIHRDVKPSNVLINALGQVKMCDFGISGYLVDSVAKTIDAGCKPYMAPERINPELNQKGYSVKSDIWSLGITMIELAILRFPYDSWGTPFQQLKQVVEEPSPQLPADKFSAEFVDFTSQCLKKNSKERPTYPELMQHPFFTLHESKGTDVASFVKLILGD

Cc1cccc(C)c1NC(=O)N1C/C=C\COc2cccc(c2)Nc2cc1ncn2 [Compound I-1]
remaining activity at 0.1 µM (Aurora A; [1]): 102%
remaining activity at 1 µM (Aurora A; [2]): 103%
remaining activity at 0.1 µM (CK1γ2; [1]): 96%
remaining activity at 1 µM (CK1γ2; [2]): 100%
remaining activity at 0.1 µM (EPH-A4; [1]): 8%
remaining activity at 1 µM (EPH-A4; [2]): 3%
remaining activity at 0.1 µM (MEKK1; [1]): 96%
remaining activity at 1 µM (MEKK1; [2]): 95%
remaining activity at 0.1 µM (MKK2; [1]): 119%
remaining activity at 1 µM (MKK2; [2]): 77%
remaining activity at 0.1 µM (MKK6; [1]): 101%
remaining activity at 1 µM (MKK6; [2]): 93%
remaining activity at 0.1 µM (MPSK1; [1]): 110%
remaining activity at 1 µM (MPSK1; [2]): 89%
remaining activity at 0.1 µM (MST3; [1]): 91%
remaining activity at 1 µM (MST3; [2]): 87%
remaining activity at 0.1 µM (MST4; [1]): 133%
remaining activity at 1 µM (MST4; [2]): 81%
remaining activity at 0.1 µM (PIM2; [1]): 92%
remaining activity at 1 µM (PIM2; [2]): 90%
